Publication PMC10671074, “Tumor Regression upon Intratumoral and Subcutaneous Dosing of the STING Agonist ALG-031048 in Mouse Efficacy Models” (International Journal of Molecular Sciences, 2023)

How the values were obtained:
[1] = test system: phosphodiesterase I from Crotalus adamanteus venom (SVPD); assay: in vitro; details: pH 8
[2] = test system: Hepa1–6 tumors; assay: Hepa1–6 mouse hepatocellular carcinoma model; format: in vivo
Experimental: The animals were fed ad libitum water (0.2-μm filtered, reverse osmosis, autoclaved), and standard irradiated rodent chow. The mice were housed on autoclaved, crushed corncob bedding, which was changed weekly, on a 12 h light cycle at 20–26 °C and 40–70% humidity.
The Hepa1–6 tumor cells were maintained in vitro in DMEM supplemented with 10% FBS at 37 °C in an atmosphere of 5% CO2 in air. Cells in the exponential growth phase were harvested and quantitated using a cell counter, adjusted to 5 × 10^7/mL in PBS before tumor inoculation.
Each mouse was inoculated subcutaneously in the right front flank region with Hepa1–6 tumor cells (5 × 10^6) in 0.1 mL PBS for tumor development. After tumor cell inoculation, the animals were checked daily for morbidity and mortality and for any effects of tumor growth or test articles on behavior such as mobility, food and water consumption, eye/hair matting, and any other abnormalities. Dosing started when the average tumor volume reached 98 mm^3. The anti-PD-1 antibody was dosed IP at 10 mg/kg twice per week (BIW), while ALG-031048 was dosed IT at 25 and 100 μg/animal on Days 1, 5, and 9. Tumor volumes were measured […], as described above.
(§1) Figure S6. A: Tumor regression in Hepa1‐6 tumor‐bearing […] mice upon IT treatment with three doses of 25 μg (light blue) or 100 μ g ALG‐031048 (dark blue), in comparison to treatment with 10 mg/kg anti‐PD‐1 antibody twice per week, 6 doses total (red). Vehicle‐treated animals are shown in black; shown are the mean tumor volumes ± standard deviation for each group of 10 animals.
(§2) Irregular, crater‐shaped tumors prevented accurate tumor volume measurement between Days 8‐
(§3) 25. Treatment started when tumors reached an average volume of 98 mm3. Statistical analysis pro‐ vided in Table S4. B: Tumor weight for each group at the end of the study. Statistical analysis pro‐ vided in Table S5. C: Plasma cytokine levels 6 hours after the first dose. Each symbol represents one animal as well as the mean of the group (n=10). Unpaired t‐test was used to compare different groups: all groups for al l cytokines were statistically significant from each other with P‐values of < 0.0001 with the following exceptions: vehicle vs anti‐PD‐1 were non‐significant (all cytokines); the […]

[3] = test system: MC38-hPD-L1 tumors; assay: MC38-hPD-L1 mouse colon carcinoma model; format: in vivo; details: 0.5 mg/kg SC, QW (2×)
Excerpt: Female C57/BL6 mice (Shanghai Lingchang Biotechnology Co., Ltd., Shanghai, China) were 5 to 8 weeks old with a body weight > 16 g at the time of inoculation. Animals were housed and fed as described above.
After inoculation with tumor cells, the animals were checked daily for morbidity and mortality. During routine monitoring, the animals were checked for any effects of tumor growth or test articles on behavior such as mobility, food and water consumption, body weight gain/loss (body weights were measured twice per week after randomization), eye/hair matting, and any other abnormalities. Tumor volumes were measured and calculated as described above.
Each group consisted of 10 animals. The control group was administered 5 mg/kg isotype control antibody in a volume of 10 μL/g of IP, BIW for 2.5 weeks, 5 doses total. The atezolizumab-treated group was administered 5 mg/kg in a volume of 10 μL/g of IP, BIW for 2.5 weeks, 5 doses total. […] Dosing started when average tumor volumes were 70 mm^3.

[4] = test system: plasma cytokines; assay: Plasma cytokine analysis in CT26-tumor-bearing mice; format: in vivo, mouse; details: CT26-bearing BALB/c, one IT dose of 100 μg, 4 h after dosing
Experimental: Plasma levels of IFN-α, IFN-β, IL-2, TNF-α, IL-6, IL-12, IP-10, IFN-γ, and MCP-1 (in pg/mL) were measured using the ProcartaPlex 9-Plex (ThermoFisher Scientific) according to the manufacturer’s instructions. Data were processed using Milliplex Analyst software version 5.1 on a MAGPIX instrument (Luminex Corp., Austin, TX, USA).
Figure S5. Plasma cytokine levels in female BALB/c mice bearing SC CT26 tumors receiving one IT dose of 100 μg ADU‐S100 or ALG‐031048, at a mean TV of 116 mm3. Cytokine concentrations were analyzed 4 hours after dos ing. Only statistically significant differences (unpaired, parametric t test) are indicated by brackets.
(also on this page, place not known: pg/ml pg/ml pg/ml pg/ml pg/ml pg/ml pg/ml pg/ml pg/ml dosing.) […]
1 mg 4 mg Saline 25 g/kg S /kg SC
Figure S8. Cytokine induction in CT26 tumor‐bearing mice upon SC administration of ALG‐031048.
10 mice per group were treated with 3 doses 3 days apart. Plasma samples were collected 6 hours […]

[5] = test system: primary human immature dendritic cells; assay: Cytokine release from immature dendritic cells; format: cell-based
Experimental: The iMDDCs harvested on Day 5 (25,000 cells/well) after differentiation from normal human CD14+ CD16− monocytes were stimulated with STING agonists for 24–48 h. An aliquot of iMDDCs was also cultured in maturation media for 24–48 h and used as a control containing RPMI 1640, 10% FBS, 2 mM L-glutamine, and human TNF-α (6000 IU/mL, Miltenyi Biotec). The supernatant from the plate was frozen to assess cytokine production, and cells were analyzed via flow cytometry.
CD11c+ monocyte‐derived dendritic cells. E: Live cells were selected based on live/dead staining
and cell size. F: Dot plot of size SSC‐A versus SSC‐H for doublet exclusion, gating on singlet cells.
G: Dot plot of CD209 vs CD11c to select CD209+CD11+ high monocyte‐derived dendritic cells.
Figure S4. Increased release of cytokines from iDCs after stimulation for 24 hours with 50 μ M of the […]

[6] = Liver microsomal stability, mouse; format: in vitro ADME; details: pH 7.4, 0.5 mg/mL mouse liver microsomes, 37 °C, read-out: Liver Microsome t½, Mouse
Experimental: The liver microsomal stability assay was carried out in 96-well microtiter plates. The test compounds at 5 µM and the reference compound (verapamil) at 1 µM final concentration were incubated separately at 37 °C with 0.5 mg/mL liver microsomes, with or without 1 mM NADPH in 100 mM potassium phosphate buffer, pH 7.4 with 3.3 mM MgCl2. […] At each of the time points (0, 15, 30, and 60 min), the enzymatic reaction was terminated with the addition of 150 μL of quenching solution (100% acetonitrile, 0.1% formic acid, and the internal standard), and subsequently the mixtures were vortexed vigorously for 20 min and centrifuged at 4000 rpm at 10 °C. The supernatants (80 µL) were transferred to a clean 96-well plate and analyzed via LC/MS/MS. The peak area ratios of each test compound over the internal standard were plotted against incubation time, and the t½ was calculated from the curve assuming first-order kinetics.

[7] = test system: plasma cytokines; assay: Plasma cytokine levels in Hepa1–6 tumor-bearing mice; format: in vivo, mouse; details: Hepa1–6, 6 hours after the first dose
Experimental: as §1, §2, §3

CO[C@H]1[C@H]2OP(=O)(O)OC[C@@]34C[C@@H]3[C@@H](n3cnc5c(N)ncnc53)[C@H](O)[C@@H]4O[P@](=O)(S)OC[C@H]1O[C@H]2n1cnc2c(=O)[nH]c(N)nc21 [ALG-031048]
remaining at 24 h [1]: 100% | Tumor weight at end of study ([2]; Hepa1–6, IT 25 and 100 μg): reduction in tumor weight | Tumor reduction at end of study ([2]; Hepa1–6, three IT doses of 25 μg (Days 1, 5, 9)): 12% | Mean tumor reduction at end of study ([2]; Hepa1–6, three IT doses of 100 μg (Days 1, 5, 9)): 88% | Complete tumor regression, animals ([2]; Hepa1–6 model): 100% | Tumor Reduction vs. Group 1 (vehicle) ([3]; Day 11): 40.3% | TV on Day 11 (Median) ([3]; n = 10, vehicle 2268): 1353 mm^3 | Plasma cytokines after IT dosing [4]: increased cytokines such as IFN-α and -β, TNF-α, interleukin 6 (IL-6), MCP-1, and IP-10 | IFN-γ and IL-6 release from iDCs ([5]; 24 h time point): either no increase or only a minimal increase | Cytokine release from iDCs ([5]; treatment for 24 h, 50 μM (Figure S4)): release of key cytokines IFN-β, IP-10, MIP-1α, MCP-1, and TNF-α | half-life at 5 µM [6]: > 8 h | Plasma cytokines after IT administration [7]: increased plasma cytokines IFN-β1, IFN-γ, IL-6, MCP-1, MIP-1α, and TNF-α
